Reference: patent US11524960B2, “Heterobicyclic inhibitors of MAT2A and methods of use for treating cancer” (AGIOS PHARMACEUTICALS, INC., priority 2018, dated 2022)
Read-outs that look alike come from different tables or passages of the source.

What was measured:
HCT116 MTAP−/− = test: Inhibition of cellular proliferation (Cell Titer Glo), HCT116 MTAP−/−; type: cell-based, human; settings: 4 days, IC50 score, read-out: 4 Day Relative Growth Inhibition (MTAP −/−; Example 277)
Experimental: (§1) Test compound impact on cancer cell growth was assessed by treating cancer cells with compound for 4 days and then measuring proliferation using an ATP-based cell proliferation readout (Cell Titer Glo, Promega Corporation).
(§2) In a typical assay an isogenic pair of HCT116 human colon carcinoma cell lines which vary only in MTAP deletion status (HCT116 MTAP+/+ and HCT116 MTAP−/−) were plated in 96-well dishes at appropriate cell density. Following 24 hours, cells were then treated with the candidate MAT2A inhibitor. Prior to addition to cells, the compound was first serially diluted in 100% DMSO, typically as a 3-fold serial dilution starting at 500× top dose with 10 dose points including DMSO only control. Compound was then transferred to a working stock plate in cell culture media by adding 5 μl of compound in DMSO to 495 μl of cell culture media. This working stock was then added to cells via a further 5-fold dilution, by adding 25 μl of working stock to 100 μl of cells in culture media. Following compound addition, cells were incubated at 37° C./5% C02 for 4 days.
(§3) To measure inhibition of cellular proliferation, cells were allowed to equilibrate to room temperature for 30 minutes, and were then treated with 125 μl of Cell Titer Glo reagent. The plate was then covered with aluminum foil and shaken for 15 minutes to ensure complete mixing and full cell lysis. Luminescent signal was then measured using a plate-based luminometer Veritas version 1.9.2 using ATP standard curve to confirm assay reproducibility from run to run. This luminescence measure was converted to a proliferation index by subtracting from each data point the ATP luminescence signal measured from a bank (no cells) well and dividing by the ATP luminescence signal measured in 0.2% DMSO control well adjusted for signal in blank well. Compound activity was then represented as a percentage change in proliferation relative to a within-plate DMSO control against log10 of compound concentration in molar (M) units.

MAT2A homodimer = biological target: T1, MAT2A homodimer (Homo sapiens, UniProt P31153); test: Biochemical assay: inhibition of MAT2A (phosphate release, PiColorLock Gold); settings: MAT2A IC50 score; read-out: Enzyme Inhibition (Example 275)
T1 construct: inferred from Ni sepharose purification and imidazole elution; made in house; host or cells: Sf9 insect cells, recombinant baculovirus (Bac to Bac, pFASTBAC1)
T1 sequence (P31153 whole entry): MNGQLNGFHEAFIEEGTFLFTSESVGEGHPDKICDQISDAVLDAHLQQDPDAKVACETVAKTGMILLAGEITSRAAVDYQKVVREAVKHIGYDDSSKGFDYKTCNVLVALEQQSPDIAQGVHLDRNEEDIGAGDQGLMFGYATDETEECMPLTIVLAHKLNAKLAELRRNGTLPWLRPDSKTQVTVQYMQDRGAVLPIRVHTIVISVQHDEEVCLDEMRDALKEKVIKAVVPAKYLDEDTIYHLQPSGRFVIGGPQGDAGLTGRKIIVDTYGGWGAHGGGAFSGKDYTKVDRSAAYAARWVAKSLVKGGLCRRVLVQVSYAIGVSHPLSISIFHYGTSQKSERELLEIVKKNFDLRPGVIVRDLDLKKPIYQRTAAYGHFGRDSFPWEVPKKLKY
Summary of the method: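 Baculovirus/Sf9-expressed, Ni-purified MAT2A at 4 µg/mL was preincubated with compound for 60 min at 25 °C in 50 mM Tris pH 8.0, 50 mM KCl, 15 mM MgCl2, 0.3 mM EDTA, 0.005% BSA. Substrate mix (500 μM ATP, 400 μM L-methionine) was added and the reaction ran 60 min at 25 °C. Phosphate released stoichiometrically with SAM was measured colorimetrically against a phosphate standard curve.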

HCT116 MTAP+/+ = test: Inhibition of cellular proliferation (Cell Titer Glo), HCT116 MTAP+/+; type: cell-based, human; settings: 4 days, IC50 score, read-out: 4 Day Relative Growth Inhibition (MTAP +/+; Example 277)
Experimental: as §1, §2, §3

[1] = tested on: SAM in HCT116 human colon carcinoma cell line engineered to delete the MTAP gene (MTAP −/−); test: Cellular assay of target engagement (SAM) by LC-MS/MS; type: cell-based; settings: IC50 score, read-out: Cell 72 h SAM Inhibition (MTAP −/−; Example 276)
Experimental: Measurement of MAT2A activity in cells was made by direct quantitation of the abundance of the product of its enzymatic activity, SAM. Cancer cells were treated with candidate MAT2A inhibitors for a suitable incubation period, and the cells were then lysed using a reagent which quenched any further enzyme activity. Soluble metabolites including SAM were collected and SAM itself was directly measured from the lysate using quantitative LC-MS/MS.
A typical assay was performed using an HCT116 human colon carcinoma cell line which was genetically engineered to delete the MTAP gene (commercially available from Horizon Discovery). This cell line was utilized because it was determined that loss of the MTAP gene predicts sensitivity to MAT2A inhibitors. Cells were plated in 96-well dishes at appropriate cell density. Following 24 hours, cells were then treated with the candidate MAT2A inhibitor. Prior to addition to cells, the compound was first serially diluted in 100% DMSO, typically as a 3-fold serial dilution starting at 500× top dose with 10 dose points including DMSO only control. Compound was then transferred to a working stock plate in cell culture media by adding 5 μl of compound in DMSO to 495 μl of cell culture media. This working stock was then added to cells via a further 5-fold dilution, by adding 25 μl of working stock to 100 μl of cells in culture media. Following compound addition, cells were incubated at 37° C./5% CO2 for 72 hrs.
To quantitate SAM levels following compound treatment, cells were gently washed once in Ammonium Carbonate buffer (75 mM at pH 7.4), placed on dry ice, and lysed with metabolite extraction buffer (80% cold methanol and 20% water (v/v) with acetic acid at 1 M final concentration with 200 ng/mL deuterated d3-SAM as internal control). Following centrifugation at 4° C. at 3,200 rpm for 30 minutes, the supernatant was collected and stored at −80° C. until analysis by Liquid Chromatography with tandem Mass Spectrometry (LC-MS/MS). LC-MS/MS analysis was performed using an API6500 Mass Spectrometer (Sciex, Framingham, Mass., USA) operating in positive ion spray mode and equipped with a Waters UPLC Acquity (Waters, Milford, Mass., USA) BEH Amide column. Multiple Reaction Monitoring data was acquired for SAM and the d3-SAM standard, using a mass transition pair at m/z 399.2→250.1 and 402.2→250.1, respectively. In a typical LC-MS/MS analysis, the initial flow rate was 0.5 ml/min of 25% mobile phase A (acetonitrile and water at 5:95 (v/v) with 1% formic acid and 10 mM ammonium acetate) and 75% mobile phase B (acetonitrile and water at 95:5 (v/v) with 1% formic acid and 10 mM ammonium acetate), 0.2-0.5 minutes with 75%-35% mobile phase B, 25%-65% mobile phase A, at 0.5 min 65% mobile phase A and 35% mobile phase B, 1.0-1.1 minutes with 35%-75% mobile phase B, 65%-25% mobile phase A, at 1.1 min 25% mobile phase A and 75% mobile phase B with a total run time of 1.5 minutes.

Compound | IC50 (HCT116 MTAP−/−; Homo sapiens, HCT-116, 96 h) [nM] | IC50 (MAT2A homodimer) [nM] | IC50 (HCT116 MTAP+/+; Homo sapiens, HCT-116, 96 h) [µM] | IC50 ([1]; Homo sapiens, HCT-116, 72 h) [nM] | IC50 (HCT116 MTAP−/−) [nM] | IC50 (HCT116 MTAP+/+) [µM] | IC50 ([1]; 72 h) [nM]
CC(C)(O)Cn1cc2cc(-n3cc4cnc(NCC(F)(F)F)nc4c(-c4ccc(Cl)cc4)c3=O)ccc2n1 [Example 101-A] | < 100 | < 100 | > 10 | < 100 | – | – | –
Cn1cc2cc(-n3cc4cnc(NCC(F)F)nc4c(-c4ccc(Cl)cc4)c3=O)ccc2n1 [Example 102-A] | < 100 | < 100 | 0.1 to 10 | < 100 | – | – | –
Cn1cc2cc(-n3cc4cnc(NCC(F)(F)F)nc4c(-c4ccc(Br)cc4)c3=O)ccc2n1 [Example 103-A] | < 100 | < 100 | > 10 | < 100 | – | – | –
CCOc1ccc2cn(-c3ccc4nn(C(C)C)cc4c3)c(=O)c(-c3ccc(Cl)cc3)c2n1 [Example 104-A] | 100 to 10000 | < 100 | 0.1 to 10 | < 100 | – | – | –
CCOc1ccc2cn(-c3ccc4nn(C)c(C)c4c3)c(=O)c(-c3ccc(Cl)cc3)c2n1 [Example 105-A] | < 100 | < 100 | 0.1 to 10 | < 100 | – | – | –
CCOc1ccc2cn(-c3ccc4nn(C)nc4c3)c(=O)c(-c3ccc(Cl)cc3)c2n1 [Example 106-A] | 100 to 10000 | < 100 | > 10 | < 100 | – | – | –
CCOc1ccc2cn(-c3ccc(=O)n(CCS(C)(=O)=O)c3)c(=O)c(-c3ccc(OC(F)F)cc3)c2n1 [Example 107-A] | – | < 100 | – | – | < 100 | 0.1 to 10 | < 100
CCOc1ccc2cn(-c3ccc4nn(CCS(C)(=O)=O)cc4c3)c(=O)c(-c3ccc(OC(F)F)cc3)c2n1 [Example 108-A] | < 100 | < 100 | 0.1 to 10 | < 100 | – | – | –
CCOc1ccc2cn(-c3ccc4nn(C)cc4c3)c(=O)c(-c3ccc(Br)cc3)c2n1 [Example 109-A] | < 100 | < 100 | 0.1 to 10 | < 100 | – | – | –
Cn1cc2cc(-n3cc4ccc(OCC(F)(F)F)nc4c(-c4ccc(OC(F)F)nc4)c3=O)ccc2n1 [Example 110-A] | < 100 | < 100 | 0.1 to 10 | < 100 | – | – | –
CCOc1ccc2cn(-c3ccc4ncn(C)c4c3)c(=O)c(-c3ccc(NC)nc3)c2n1 [Example 111-A] | < 100 | < 100 | 0.1 to 10 | < 100 | – | – | –
Cn1cnc2ccc(-n3cc4ccc(OCC(F)(F)F)nc4c(-c4ccc(OC(F)(F)F)nc4)c3=O)cc21 [Example 112-A] | < 100 | < 100 | 0.1 to 10 | < 100 | – | – | –
Cn1cc2cc(-n3cc4ccc(OCC(F)(F)F)nc4c(-c4ccc(C5CC5)nc4)c3=O)ccc2n1 [Example 113-A] | < 100 | < 100 | 0.1 to 10 | < 100 | – | – | –
CCOc1ccc2cn(-c3ccc(OC)cc3)c(=O)c(-c3ccc(C)nc3)c2n1 [Example 114-A] | < 100 | < 100 | 0.1 to 10 | < 100 | – | – | –
[2H]C([2H])([2H])Oc1ccc(-c2c(=O)n(-c3ccc4nn(C)cc4c3)cc3ccc(OCC(F)F)nc23)cc1 [Example 115-A] | < 100 | < 100 | 0.1 to 10 | < 100 | – | – | –
[2H]C([2H])([2H])Oc1ccc(-c2c(=O)n(-c3ccc4nn(C)cc4c3)cc3ccc(OCC(F)(F)F)nc23)cc1 [Example 116-A] | < 100 | < 100 | > 10 | < 100 | – | – | –
[2H]C([2H])([2H])Oc1ccc(-c2c(=O)n(-c3ccc4nn(C)cc4c3)cc3ccc(OCC)nc23)cc1 [Example 117-A] | < 100 | < 100 | 0.1 to 10 | < 100 | – | – | –
Cn1cc2cc(-n3cc4ccc(OCC(F)(F)F)nc4c(-c4ccc(C(F)F)nc4)c3=O)ccc2n1 [Example 118-A] | < 100 | < 100 | 0.1 to 10 | < 100 | – | – | –
CCOc1ccc2cn(-c3ccc4nn(C)cc4c3)c(=O)c(-c3cnc(C(F)(F)F)nc3)c2n1 [Example 119-A] | < 100 | < 100 | 0.1 to 10 | < 100 | – | – | –
Cn1cnc2ccc(-n3cc4ccc(OCC(F)(F)F)nc4c(-c4ccc(C5CC5)nc4)c3=O)cc21 [Example 120-A] | < 100 | < 100 | 0.1 to 10 | < 100 | – | – | –
CCOc1ccc2cn(-c3ccc(OC)cc3)c(=O)c(-c3ccc(OC(F)(F)F)nc3)c2n1 [Example 121-A] | 100 to 10000 | < 100 | 0.1 to 10 | < 100 | – | – | –
CCOc1cc(C)c2cn(-c3ccc4nn(C)cc4c3)c(=O)c(-c3ccc(Cl)cc3)c2n1 [Example 122-A] | < 100 | < 100 | 0.1 to 10 | < 100 | – | – | –
Cn1cc2cc(-n3cc4cnc(NCC(F)(F)F)nc4c(-c4ccc(Cl)cc4)c3=O)ccc2n1 [Example 123, 8-(4-chlorophenyl)-6-(2-methyl-2H-indazol-5-yl)-2-((2,2,2-trifluoroethyl)amino)pyrido[4,3-d]pyrimidin-7(6H)-one] | < 100 | < 100 | 0.1 to 10 | < 100 | – | – | –
Cn1cc2cc(-n3cc4ccc(OCC(F)F)nc4c(-c4ccc(OC(F)F)nc4)c3=O)ccc2n1 [Example 123-A] | < 100 | < 100 | 0.1 to 10 | < 100 | – | – | –
CCOc1ccc2cn(-c3ccc4nn(C)cc4c3)c(=O)c(-c3ccc(OC(F)(F)F)nc3)c2n1 [Example 133-A] | < 100 | < 100 | – | < 100 | – | – | –
